The record followed here is US20220055989A1, “CONDENSED PYRROLES AS NOVEL BROMODOMAIN INHIBITORS” (ALBERT LUDWING UNIVERSITÄT FREIBURG, priority 2018, published 2022).

What all share (type): binding
One experiment relates to bromodomains. Briefly: Bromodomain profiling (BROMOscan), summary over the panel. The note with it: compared to the compound of formula (23); bromodomains of Table 3. The protocol:
Bromodomain profiling was carried out on the basis of BROMOscan™. This platform accounted for the indirect determination of the dissociation constants between 19 bromodomains and the compound of formula (13), by binding competition against a reference immobilized ligand.
Compounds that bind the bromodomain prevent its binding to the immobilized ligand thus reducing the amount of protein captured. […] Hits are identified by measuring the amount of bromodomain captured in test versus control samples.
Bromodomain assays for Kd determination: T7 phage strains displaying bromodomains were grown in parallel in 24-well blocks in an E. coli host derived from the BL21 strain. E. coli were grown to log-phase and infected with T7 phage from a frozen stock (multiplicity of infection=0.4) and incubated with shaking at 32° C. until lysis (90-150 minutes). The lysates were centrifuged (5,000×g) and filtered (0.2 μm) to remove cell debris. […] Kds were determined using an 11-point 3-fold compound dilution series with one DMSO control point. […] The bromodomain concentration in the eluates was measured by qPCR.
Bromodomain assays for % Ctrl determination: T7 phage strains displaying bromodomains were grown in parallel in 24-well blocks in an E. coli host derived from the BL21 strain. […] The bromodomain concentration in the eluates was measured by qPCR.

The target of a further experiment is T1, BRD2(2) (Homo sapiens, UniProt P25440).
T1 construct: T7 phage strains displaying bromodomains were grown in parallel; made in house; host or cells: T7 phage grown in an E. coli host derived from the BL21 strain
T1 sequence (P25440 344-453 limits assumed): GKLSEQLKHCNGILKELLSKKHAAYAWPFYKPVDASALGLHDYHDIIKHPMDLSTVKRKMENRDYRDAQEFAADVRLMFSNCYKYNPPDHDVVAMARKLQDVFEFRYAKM
Briefly: BROMOscan Kd determination BRD2(2). The protocol:
(§1) Bromodomain profiling was carried out on the basis of BROMOscan™. This platform accounted for the indirect determination of the dissociation constants between 19 bromodomains and the compound of formula (13), by binding competition against a reference immobilized ligand. Compounds that bind the bromodomain prevent its binding to the immobilized ligand thus reducing the amount of protein captured. […] Hits are identified by measuring the amount of bromodomain captured in test versus control samples. Bromodomain assays for Kd determination: T7 phage strains displaying bromodomains were grown in parallel in 24-well blocks in an E. coli host derived from the BL21 strain. E. coli were grown to log-phase and infected with T7 phage from a frozen stock (multiplicity of infection=0.4) and incubated with shaking at 32° C. until lysis (90-150 minutes). The lysates were centrifuged (5,000×g) and filtered (0.2 μm) to remove cell debris. […] Kds were determined using an 11-point 3-fold compound dilution series with one DMSO control point. […] The bromodomain concentration in the eluates was measured by qPCR. […] Most Kds were determined using a compound top concentration=10,000 nM. […] Binding Constants (Kds): Binding constants (Kds) were calculated with a standard dose-response curve using the Hill equation: The Hill Slope was set to −1. […]

In another experiment the target is T2, BRD3(1) (Homo sapiens, UniProt Q15059).
T2 construct: T7 phage strains displaying bromodomains were grown in parallel; made in house; host or cells: T7 phage grown in an E. coli host derived from the BL21 strain
T2 sequence (Q15059 34-140 limits assumed): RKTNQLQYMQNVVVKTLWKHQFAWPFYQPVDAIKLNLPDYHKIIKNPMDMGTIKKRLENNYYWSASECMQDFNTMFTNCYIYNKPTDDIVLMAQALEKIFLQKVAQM
Briefly: BROMOscan Kd determination BRD3(1). The protocol:
as §1

A further experiment deals with T3, BRDT(2) (Homo sapiens, UniProt Q58F21).
T3 construct: T7 phage strains displaying bromodomains were grown; host or cells: T7 phage in E. coli derived from BL21
Briefly: BROMOscan Kd determination BRDT(2). The protocol: as §1

Another experiment addresses T4, BRD4(2) (Homo sapiens, UniProt O60885).
T4 construct: T7 phage strains displaying bromodomains were grown; host or cells: T7 phage in E. coli derived from BL21
Kind of experiment: BROMOscan Kd determination BRD4(2). The protocol:
as §1

A further experiment has as its target T5, BRD3(2) (Homo sapiens, UniProt Q15059).
T5 construct: T7 phage strains displaying bromodomains were grown in parallel; made in house; host or cells: T7 phage grown in an E. coli host derived from the BL21 strain
Briefly: BROMOscan Kd determination BRD3(2). The protocol:
as §1

T5 sequence (Q15059 306-415 limits assumed): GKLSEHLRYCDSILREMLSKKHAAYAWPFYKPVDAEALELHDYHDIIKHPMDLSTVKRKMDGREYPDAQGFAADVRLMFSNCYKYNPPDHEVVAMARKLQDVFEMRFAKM

With `CCCc1[nH]c(-c2cc(N)ccc2Cl)c2c1C(=O)CCCC2` [Compound 26, 1-(5-Amino-2-chlorophenyl)-3-propyl-5,6,7,8-tetrahydrocyclohepta[c]pyrrol-4(2H)-one], the “selectivity for certain bromodomains evaluated” value in the experiment with bromodomains was “higher selectivity for certain bromodomains”.
Same read-out and setting: the value for `CCCCc1[nH]c(-c2cc(N)ccc2Cl)c2c1C(=O)CCCC2` [Compound 27, 1-(5-Amino-2-chlorophenyl)-3-butyl-5,6,7,8-tetrahydrocyclohepta[c]pyrrol-4(2H)-one] was “higher selectivity for certain bromodomains”.
In the case of `COc1ccc(S(=O)(=O)N2CCOCC2)cc1NC(=O)c1[nH]c(C)c2c1CCCCC2=O` [Compound 13, N-(2-methoxy-5-(morpholinosulfonyl)phenyl)-3-methyl-4-oxo-2,4,5,6,7,8-hexahydrocyclohepta[c]pyrrole-1-carboxamide], the Kd (commonly the free concentration of one partner at which half of the binding sites on the other are occupied at equilibrium, for simple one-to-one binding) at BRD2(2) turned out to be 0.29 µM; at BRD3(1), 0.1 µM; on BRDT(2) it was 1 µM; on BRD4(2), 0.22 µM; at BRD3(2) it was 0.14 µM.
Regarding `Cc1[nH]c(-c2cc(N)ccc2Cl)c2c1C(=O)CCCC2` [Compound 23], the Kd worked out at 0.2 µM at BRD2(2); 0.17 µM at BRD3(1); 0.62 µM on BRDT(2); 0.27 µM on BRD4(2); 0.33 µM on BRD3(2).
